The text below walks through data of ChEMBL document CHEMBL1641581, “Ring A-seco triterpenoids with antibacterial activity from Dysoxylum hainanense” (2011).

Converted amounts (≈) assume the structure as drawn. Some results are limits rather than exact numbers.

Type in all cases: functional
One assay deals with Staphylococcus aureus. Description: Antibacterial activity against Staphylococcus aureus ATCC 25923 assessed as inhibition of visible growth.
In assay [1] the test system is Staphylococcus epidermidis. Description: Antibacterial activity against Staphylococcus epidermidis ATCC 12228 assessed as inhibition of visible growth.
In a further assay the test system is Micrococcus luteus. Briefly: Antibacterial activity against Micrococcus luteus ATCC 9341 assessed as inhibition of visible growth.
For a further assay, the system named is Bacillus subtilis. Briefly: Antibacterial activity against Bacillus subtilis ATCC 6633 assessed as inhibition of visible growth.
The test system of another assay is Escherichia coli. Briefly: Antibacterial activity against Escherichia coli ATCC 25922 assessed as inhibition of visible growth.
In the next assay the test system is Shigella flexneri. Briefly: Antibacterial activity against Shigella flexneri ATCC 12022 assessed as inhibition of visible growth.
The next assay has as its system Pseudomonas aeruginosa. Briefly: Antibacterial activity against Pseudomonas aeruginosa ATCC 14502 assessed as inhibition of visible growth.
Another assay relates to Candida albicans. Briefly: Antifungal activity against Candida albicans ATCC 1600 assessed as inhibition of visible growth.
In another assay the test system is Saccharomyces. Briefly: Antifungal activity against Saccharomyces sake ATCC 26421 assessed as inhibition of visible growth.
The next assay has as its system Nannizzia gypsea. Description: Antifungal activity against Microsporum gypseum ATCC 14683 assessed as inhibition of visible growth.
Another assay relates to Trichophyton rubrum. Briefly: Antifungal activity against Trichophyton rubrum ATCC 10218 assessed as inhibition of visible growth.

Take `C=C(C)[C@@H]1CC[C@]2(C)[C@H](CC=C3[C@@H]4C[C@@](C)(C(=O)O)CC[C@]4(C)CC[C@]32C)[C@@]1(C)CCC(=O)OC` [DYSOXYHAINIC ACID G]: the MIC in the assay with Staphylococcus aureus was > 50 µg/mL; in assay [1], 3.12 µg/mL (≈ 6.44 µM); with Micrococcus luteus, 3.12 µg/mL (≈ 6.44 µM); in the assay with Bacillus subtilis, 3.12 µg/mL (≈ 6.44 µM); in the assay on Escherichia coli, > 50 µg/mL; with Shigella flexneri, > 50 µg/mL. In addition, the MIC in the assay with Pseudomonas aeruginosa, in the assay on Candida albicans, in the assay on Saccharomyces, in the assay with Nannizzia gypsea and with Trichophyton rubrum was > 50 µg/mL each time.
As to `CC(C)(C(=O)O)[C@@H]1CC[C@]2(C)[C@H](CC=C3[C@@H]4C[C@@](C)(C(=O)O)CC[C@]4(C)CC[C@]32C)[C@@]1(C)C(=O)O` [DYSOXYHAINIC ACID F], the MIC (in the assay on Staphylococcus aureus; in [1]; in the assay with Micrococcus luteus; with Bacillus subtilis; in the assay with Escherichia coli; in the assay with Shigella flexneri) was > 50 µg/mL each time. Also, the MIC with Pseudomonas aeruginosa, in the assay with Candida albicans, in the assay on Saccharomyces, in the assay on Nannizzia gypsea and with Trichophyton rubrum was > 50 µg/mL throughout.
In the case of `COC(=O)C1=CC[C@@]23CC[C@@H]([C@@](C)(/C=C/C=C(\C)C(=O)O)OC2=O)[C@@]3(OC(C)=O)CC1` [PSEUDOLARIC ACID B], the MIC with Candida albicans was determined as 6.25 µg/mL (≈ 14.5 µM); with Saccharomyces it was 12.5 µg/mL (≈ 28.9 µM); in the assay on Nannizzia gypsea it was 12.5 µg/mL (≈ 28.9 µM); in the assay with Trichophyton rubrum it was 25 µg/mL (≈ 57.8 µM).
Take `C=C(C)[C@@H]1CC[C@]2(C)[C@H](CC=C3[C@@H]4C[C@@](C)(C(=O)O)CC[C@]4(C)CC[C@]32C)[C@@]1(C)CCC(=O)O` [KOETJAPIC ACID]: the MIC with Staphylococcus aureus was > 50 µg/mL; in assay [1] it was 12.5 µg/mL (≈ 26.6 µM); with Micrococcus luteus it was > 50 µg/mL; in the assay with Bacillus subtilis, 6.25 µg/mL (≈ 13.3 µM); in the assay with Escherichia coli, > 50 µg/mL; with Shigella flexneri it was > 50 µg/mL. Besides, the MIC in the assay with Pseudomonas aeruginosa, in the assay on Candida albicans, in the assay on Saccharomyces, in the assay on Nannizzia gypsea and with Trichophyton rubrum was > 50 µg/mL in each case.
In the case of `C=C(C)[C@@H]1CC[C@]2(C)[C@H](CC[C@@H]3[C@H]4[C@H](C(C)(C)O)CC[C@]4(C)CC[C@]32C)[C@@]1(C)CCC(=O)O` [DYSOXYHAINIC ACID H], the MIC in the assay with Staphylococcus aureus is > 50 µg/mL; in assay [1], > 50 µg/mL; in the assay on Micrococcus luteus it was 3.12 µg/mL (≈ 6.8 µM); in the assay on Bacillus subtilis, 3.12 µg/mL (≈ 6.8 µM); in the assay on Escherichia coli it was > 50 µg/mL; with Shigella flexneri, > 50 µg/mL. The MIC with Pseudomonas aeruginosa, in the assay on Candida albicans, with Saccharomyces, in the assay on Nannizzia gypsea and with Trichophyton rubrum was > 50 µg/mL in each case.
In the case of `CC1(C)CC[C@]2(C)CC[C@]3(C)C(=CC[C@@H]4[C@@](C)(CCC(=O)O)[C@H](C(C)(C)O)CC[C@]43C)[C@@H]2C1` [DYSOXYHAINIC ACID I], the MIC with Staphylococcus aureus was > 50 µg/mL; in assay [1] it was 12.5 µg/mL (≈ 27.2 µM); with Micrococcus luteus, > 50 µg/mL; with Bacillus subtilis, 1.56 µg/mL (≈ 3.4 µM); in the assay on Escherichia coli, > 50 µg/mL; in the assay on Shigella flexneri, > 50 µg/mL. Moreover, the MIC in the assay on Pseudomonas aeruginosa, in the assay on Candida albicans, in the assay with Saccharomyces, in the assay on Nannizzia gypsea and with Trichophyton rubrum was > 50 µg/mL each time.
With `C=CCc1ccc(O)c(-c2cc(CC=C)ccc2O)c1` [MAGNOLOL], the MIC in the assay with Staphylococcus aureus is 25 µg/mL (≈ 93.9 µM); in assay [1], 12.5 µg/mL (≈ 46.9 µM); with Micrococcus luteus, 12.5 µg/mL (≈ 46.9 µM); in the assay with Bacillus subtilis, 12.5 µg/mL (≈ 46.9 µM); with Escherichia coli, > 50 µg/mL; in the assay with Shigella flexneri, > 50 µg/mL. Besides, in the assay on Pseudomonas aeruginosa, the MIC is > 50 µg/mL.
With `CC1(C)CC[C@]2(C)CC[C@]3(C)C(=CC=C4[C@@](C)(CCC(=O)O)[C@H](C(C)(C)O)CC[C@]43C)[C@@H]2C1` [DYSOXYHAINIC ACID J], the MIC (in the assay on Staphylococcus aureus; in assay [1]; in the assay on Micrococcus luteus; with Bacillus subtilis; in the assay with Escherichia coli; in the assay on Shigella flexneri) was > 50 µg/mL in each case. Moreover, the MIC in the assay with Pseudomonas aeruginosa, in the assay with Candida albicans, in the assay on Saccharomyces, in the assay with Nannizzia gypsea and with Trichophyton rubrum was > 50 µg/mL in each case.
